Laboratory results: PubChem BioAssay AID2060906 (Molecular Pharmacology Branch, DTP, NCI, 2025)

Test system: 485176-168-R4-J1-PDC complex spheroid growth
Assay: Anticancer human tumor 485176-168-R4-J1-PDC patient-derived pancreatic adenocarcinoma cell line growth inhibition [RAS]
Conditions: for viability, T/C: stronger effect = lower value
Excerpt: RAS pathway inhibitors in Combinations in Complex Spheroids
A high-throughput screen of multi-cell type tumor spheroids was designed to identify active combinations of RAS pathway inhibitors and targeted small molecules. Complex spheroids include a stromal component modeled by human endothelial cells (HUVEC) and fibroblasts modeled by human mesenchymal stem cells (MSCs). The concentration ranges selected for each drug and investigational agent were based upon clinically achievable concentrations if the clinical Cmax of the agent was known.
Compounds. The drugs and investigational agents: abemaciclib (NSC768073), cobimetinib (NSC768068), divarasib (GDC6063, NSC841802), docetaxel (NSC628503), GDC-1971 (RLY-1971, NSC841576), gemcitabine (NSC613327), inavolisib (NSC800729), ipatasertib (NSC767898), KB-0742 (NSC834161), MRTX-1133 (NSC836407), osimertinib (NSC779217), RMC-4630 (NSC839698), RMC-6236 (NSC851965), RMC-6291 (NSC852671), Ro-3306 (NSC812927), sapanisertib (NSC764658), SN-38 (NSC673596), staurosporine (NSC755774), SY5609 (NSC837396), and tovorafenib (DAY101, NSC766906), were obtained from the National Cancer Institute (NCI) Developmental Therapeutics Program Chemical Repository. The FDA-approved anticancer drug set is available from the NCI Developmental Therapeutics Program. […] The stock solutions were prepared in dimethyl sulfoxide (DMSO, Sigma-Aldrich, St. Louis, MO, cat. D2650) at 800-fold the tested concentration and stored at -70 degrees C prior to their use. All drugs and investigational agents were tested over a range starting from a high concentration at or near the clinical Cmax and decreasing in half-log increments. If the clinical Cmax for an agent had not been determined, the highest concentration tested was 10 microM.
Cell Culture. All cells were maintained in an incubator at 37 degrees C and 5% CO2 with 95% humidity. The PDC lines were cultured according to standard operating procedures established by the NCI PDMR. All PDCs were thawed and cultured in Matrigel-coated flasks prepared with a working solution of 1X Ham's F-12 nutrient mix, without supplementation (Invitrogen, Waltham, MA, cat. 11765054), 100 U/mL penicillin-streptomycin (Invitrogen, cat. 15140122), and 2.5% Matrigel (Corning Inc., Corning, NY, cat. 354248) for the first three passages. The 362531-283-R-J2-PDC and 782815-120-R-J1-PDC lines were cultured in 6C/Colon 1B media, which includes advanced DMEM/F-12 (Thermo Fisher Scientific, cat. 12634028), 10 mM HEPES (Thermo Fisher Scientific, cat. 15630080), 1X GlutaMAX supplement (Thermo Fisher Scientific, cat. 35050061), 0.1 mg/mL primocin (InvivoGen, San Diego, CA, cat. ant-pm-2), 10% defined fetal bovine serum, heat inactivated (HyClone Laboratories Inc., Logan, UT, cat. SH30070.03HI), 50% L-WRN conditioned media (ATCC, cat. CRL-3276), 1.25 mM N-Acetyl-L-cysteine (Sigma-Aldrich, cat. A9165), 10 mM nicotinamide (Sigma-Aldrich, cat. N0636), 1X B-27 supplement (Thermo Fisher Scientific, cat. 17504044), 1X N-2 supplement (Thermo Fisher Scientific, cat. 17502048), 50 ng/mL human EGF (Thermo Fisher Scientific, cat. PHG0311), and 10 microM Y-27632 dihydrochloride (Tocris Bioscience, cat. 1254). The K12877-001-R-J1-PDC line was cultured in 6I media, which includes all 6C/Colon 1B media plus 10 ng/mL human FGF-10 (PeproTech, cat. 100-26), 1 ng/mL human FGF-2 (PeproTech, cat. 100-18B), 1 µM prostaglandin E2 (Tocris Bioscience, cat. 2296), […] hydrocortisone (Sigma-Aldrich, cat. H4001), and […] bovine insulin (Sigma-Aldrich, cat. I6634). The K86415-001-R-J1-PDC line was cultured in 6D media, which includes all 6C/Colon 1B media components minus the L-WRN conditioned media. The 485176-168-R4-J1-PDC was cultured in PANC media, which includes all 6C/Colon 1B media plus 100 ng/mL human FGF-10 (PeproTech, cat. 100-26), 500 nM SB-431542 (Selleckchem, cat. S1067), and 10 nM gastrin (Tocris Bioscience, cat. 3006). […]

[1] = curve of first compound, second compound 0.0316 µM
[2] = curve of first compound, second compound 0.1 µM
[3] = curve of first compound, second compound 0.316 µM
[4] = curve of first compound, second compound 1 µM
[5] = curve of first compound, second compound 3.16 µM
[6] = curve of first compound, second compound 10 µM
[7] = second compound 0.0316 µM, first compound 0.0316 µM
[8] = second compound 0.0316 µM, first compound 0.1 µM
[9] = second compound 0.0316 µM, first compound 0.316 µM
[10] = second compound 0.0316 µM, first compound 1 µM
[11] = second compound 0.0316 µM, first compound 3.16 µM
[12] = second compound 0.0316 µM, first compound 10 µM
[13] = second compound 0.1 µM, first compound 0.0316 µM
[14] = second compound 0.1 µM, first compound 0.1 µM
[15] = second compound 0.1 µM, first compound 0.316 µM
[16] = second compound 0.1 µM, first compound 1 µM
[17] = second compound 0.1 µM, first compound 3.16 µM
[18] = second compound 0.1 µM, first compound 10 µM
[19] = second compound 0.316 µM, first compound 0.0316 µM
[20] = second compound 0.316 µM, first compound 0.1 µM
[21] = second compound 0.316 µM, first compound 0.316 µM
[22] = second compound 0.316 µM, first compound 1 µM
[23] = second compound 0.316 µM, first compound 3.16 µM
[24] = second compound 0.316 µM, first compound 10 µM
[25] = second compound 1 µM, first compound 0.0316 µM
[26] = second compound 1 µM, first compound 0.1 µM
[27] = second compound 1 µM, first compound 0.316 µM
[28] = second compound 1 µM, first compound 1 µM
[29] = second compound 1 µM, first compound 3.16 µM
[30] = second compound 1 µM, first compound 10 µM
[31] = second compound 3.16 µM, first compound 0.0316 µM
[32] = second compound 3.16 µM, first compound 0.1 µM
[33] = second compound 3.16 µM, first compound 0.316 µM
[34] = second compound 3.16 µM, first compound 1 µM
[35] = second compound 3.16 µM, first compound 3.16 µM
[36] = second compound 3.16 µM, first compound 10 µM
[37] = second compound 10 µM, first compound 0.0316 µM
[38] = second compound 10 µM, first compound 0.1 µM
[39] = second compound 10 µM, first compound 0.316 µM
[40] = second compound 10 µM, first compound 1 µM
[41] = second compound 10 µM, first compound 3.16 µM
[42] = second compound 10 µM, first compound 10 µM
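Further: spheroids exposed to compounds for seven days before readout.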
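Wherever viability, T/C is given: luminescence viability expressed relative to DMSO vehicle wells set as 100%.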

CCn1c(-c2cccnc2C(C)OC)c2c3cc(ccc31)N1CCOC(CC(NC(=O)C(C(C)C)N(C)C(=O)C3(F)CCN(C(=O)C#CC(C)(C)N(C)C)CC3)C(=O)N3CCCC(N3)C(=O)OCC(C)(C)C2)C1 (stereo not given)
viability, T/C (compound 0.003 µM): 104% [middle of 8 runs]
viability, T/C (compound 0.00949 µM): 107% [middle of 8 runs]
viability, T/C (compound 0.03 µM): 93.8% [middle of 8 runs]
viability, T/C (compound 0.0949 µM): 93% [middle of 8 runs]
viability, T/C (compound 0.3 µM): 81.7% [middle of 8 runs]
IC50 (compound alone, run of 05/20/2024): > 0.3 µM

C[C@@H](NC(=O)c1ncnc(N)c1Cl)c1ncc(C(=O)Nc2cc(C(F)(F)F)c(Cl)cn2)s1 + C#Cc1c(F)ccc2cc(O)cc(-c3ncc4c(N5CC6CCC(C5)N6)nc(OCC56CCCN5CC(F)C6)nc4c3F)c12
IC50 [1]: > 10 µM
IC50 [2]: > 10 µM
IC50 [3]: > 10 µM
IC50 [4]: > 10 µM
IC50 [5]: > 10 µM
IC50 [6]: > 10 µM
viability, T/C [7]: 123%
viability, T/C [8]: 101%
viability, T/C [9]: 102%
viability, T/C [10]: 78.9%
viability, T/C [11]: 87.8%
viability, T/C [12]: 58.8%
viability, T/C [13]: 106%
viability, T/C [14]: 100%
viability, T/C [15]: 86.7%
viability, T/C [16]: 81.7%
viability, T/C [17]: 73.5%
viability, T/C [18]: 62.1%
viability, T/C [19]: 97.2%
viability, T/C [20]: 86.3%
viability, T/C [21]: 73%
viability, T/C [22]: 84.1%
viability, T/C [23]: 69.9%
viability, T/C [24]: 63%
viability, T/C [25]: 84.8%
viability, T/C [26]: 81.8%
viability, T/C [27]: 101%
viability, T/C [28]: 75.3%
viability, T/C [29]: 74.7%
viability, T/C [30]: 57.2%
viability, T/C [31]: 103%
viability, T/C [32]: 96.8%
viability, T/C [33]: 94.7%
viability, T/C [34]: 80.5%
viability, T/C [35]: 69.8%
viability, T/C [36]: 63%
viability, T/C [37]: 97.6%
viability, T/C [38]: 87%
viability, T/C [39]: 83.6%
viability, T/C [40]: 80.3%
viability, T/C [41]: 75%
viability, T/C [42]: 58.1%

Cc1nc(N2CCC3(CC2)COC(C)C3N)c(CO)nc1Sc1ccnc(N)c1Cl (stereo not given) + C#Cc1c(F)ccc2cc(O)cc(-c3ncc4c(N5CC6CCC(C5)N6)nc(OCC56CCCN5CC(F)C6)nc4c3F)c12
IC50 [1]: > 10 µM
IC50 [2]: > 10 µM
IC50 [3]: > 10 µM
IC50 [4]: > 10 µM
IC50 [5]: > 10 µM
IC50 [6]: > 10 µM
viability, T/C [7]: 111%
viability, T/C [8]: 89.3%
viability, T/C [9]: 79.5%
viability, T/C [10]: 82.5%
viability, T/C [11]: 88.5%
viability, T/C [12]: 73.4%
viability, T/C [13]: 91.6%
viability, T/C [14]: 99.6%
viability, T/C [15]: 83.4%
viability, T/C [16]: 84.4%
viability, T/C [17]: 85.6%
viability, T/C [18]: 83%
viability, T/C [19]: 83%
viability, T/C [20]: 85.4%
viability, T/C [21]: 86.7%
viability, T/C [22]: 70.6%
viability, T/C [23]: 81.8%
viability, T/C [24]: 77.3%
viability, T/C [25]: 85.5%
viability, T/C [26]: 102%
viability, T/C [27]: 71.4%
viability, T/C [28]: 75.3%
viability, T/C [29]: 77.7%
viability, T/C [30]: 70.8%
viability, T/C [31]: 92.6%
viability, T/C [32]: 98.1%
viability, T/C [33]: 96.2%
viability, T/C [34]: 75.9%
viability, T/C [35]: 86.5%
viability, T/C [36]: 64.1%
viability, T/C [37]: 80.4%
viability, T/C [38]: 87.4%
viability, T/C [39]: 87%
viability, T/C [40]: 82.1%
viability, T/C [41]: 80%
viability, T/C [42]: 86.6%
